Data reported in patent US12421243B2, “Pharmaceutically effective compounds inhibiting selectively the myosin 2 isoforms” (PRINTNET KERESKEDELMI ÉS SZOLGÁLTATÓ KFT., priority 2018, dated 2025).

How the values were obtained:
[1] = molecular target: T1, isolated porcine cardiac ventricular myocardium (cardiac) (Sus scrofa, UniProt P79293); assay: actomyosin steady state ATPase measurement, cardiac myosin; assay type: biochemical; settings: for IC50: concentration required for semi-maximal inhibition of ATPase; for % inhibition. complete cardiac: maximum value of inhibition of ATPase activity; for inhibition at 5 µM: read-out: % inhibition at 5 μM (or 10 μM if racemate) cardiac, 5 μM (10 μM if racemate); for inhibition at 5 µM / inhibition at 50 µM: ATPase activity; for inhibition at 50 µM: read-out: % inhibition at 50 μM (or 100 μM if racemate) cardiac, 50 μM (100 μM if racemate); for Inhibition (%) cardiac: maximum inhibition, compounds in IC50 range 3-6 μM
T1 construct: isolated porcine cardiac ventricular myocardium (cardiac); from tissue; host or cells: porcine cardiac ventricle
Text: (§1) […]; (ii) the concentration required for semi-maximal inhibition.

[2] = molecular target: isolated smooth muscle myosin (UniProt P10587); assay type: biochemical, chamois; settings: for % inhibition at 5 μM (or 10 μM if racemate) Smooth: 5 μM (10 μM if racemate); for % inhibition at 5 μM (or 10 μM if racemate) Smooth / % inhibition at 50 μM (or 100 μM if racemate) Smooth: ATPase activity; for % inhibition at 50 μM (or 100 μM if racemate) Smooth: 50 μM (100 μM if racemate); for % inhibition. complete Smooth: maximum value of inhibition of ATPase activity; for Inhibition (%) smooth: maximum inhibition, compounds in IC50 range 1-5 μM
[3] = molecular target: recombinant Dictyostelium miozin (Dictyostelium) (Dictyostelium discoideum, UniProt P08799); assay: actomyosin steady state ATPase measurement, Dictyostelium myosin; assay type: biochemical; settings: for IC50: concentration required for semi-maximal inhibition of ATPase, read-out: IC50 (μM) Dicty; for % inhibition. complete Dicty: maximum value of inhibition of ATPase activity; for inhibition at 5 µM: read-out: % inhibition at 5 μM (or 10 μM if racemate) Dicty; for inhibition at 50 µM: read-out: % inhibition at 50 μM (or 100 μM if racemate) Dicty
Text: as §1

[4] = molecular target: recombinant human non-muscle myosin 2 NM2C (Homo sapiens, UniProt Q7Z406); assay: actomyosin steady state ATPase measurement, NM2C; assay type: biochemical; settings: for IC50: concentration required for semi-maximal inhibition of ATPase; for Inhibition (%) NM2C: maximum inhibition, compounds in IC50 range 1-5 μM; for % inhibition. complete NM2C: maximum value of inhibition of ATPase activity; for inhibition at 5 µM: read-out: % inhibition at 5 μM (or 10 μM if racemate) NM2C, 5 μM (10 μM if racemate); for inhibition at 5 µM / inhibition at 50 µM: ATPase activity; for inhibition at 50 µM: read-out: % inhibition at 50 μM (or 100 μM if racemate) NM2C, 50 μM (100 μM if racemate)
Text: as §1

[5] = test system: isolated rabbit skeletal muscle myosin (skeletal); assay: actomyosin steady state ATPase measurement, skeletal muscle myosin; assay type: biochemical; settings: for % inhibition at 5 μM (or 10 μM if racemate) Skeletal: 5 μM (10 μM if racemate); for % inhibition at 5 μM (or 10 μM if racemate) Skeletal / % inhibition at 50 μM (or 100 μM if racemate) Skeletal: ATPase activity; for % inhibition at 50 μM (or 100 μM if racemate) Skeletal: 50 μM (100 μM if racemate); for IC50: concentration required for semi-maximal inhibition of ATPase; for % inhibition. complete Skeletal: maximum value of inhibition of ATPase activity
Text: as §1

[6] = molecular target: isolated smooth muscle myosin (UniProt P10587); assay type: biochemical, chamois; settings: concentration required for semi-maximal inhibition of ATPase
Text: (ii) the concentration required for semi-maximal inhibition.

isolated smooth muscle myosin, sequence (P10587 whole entry): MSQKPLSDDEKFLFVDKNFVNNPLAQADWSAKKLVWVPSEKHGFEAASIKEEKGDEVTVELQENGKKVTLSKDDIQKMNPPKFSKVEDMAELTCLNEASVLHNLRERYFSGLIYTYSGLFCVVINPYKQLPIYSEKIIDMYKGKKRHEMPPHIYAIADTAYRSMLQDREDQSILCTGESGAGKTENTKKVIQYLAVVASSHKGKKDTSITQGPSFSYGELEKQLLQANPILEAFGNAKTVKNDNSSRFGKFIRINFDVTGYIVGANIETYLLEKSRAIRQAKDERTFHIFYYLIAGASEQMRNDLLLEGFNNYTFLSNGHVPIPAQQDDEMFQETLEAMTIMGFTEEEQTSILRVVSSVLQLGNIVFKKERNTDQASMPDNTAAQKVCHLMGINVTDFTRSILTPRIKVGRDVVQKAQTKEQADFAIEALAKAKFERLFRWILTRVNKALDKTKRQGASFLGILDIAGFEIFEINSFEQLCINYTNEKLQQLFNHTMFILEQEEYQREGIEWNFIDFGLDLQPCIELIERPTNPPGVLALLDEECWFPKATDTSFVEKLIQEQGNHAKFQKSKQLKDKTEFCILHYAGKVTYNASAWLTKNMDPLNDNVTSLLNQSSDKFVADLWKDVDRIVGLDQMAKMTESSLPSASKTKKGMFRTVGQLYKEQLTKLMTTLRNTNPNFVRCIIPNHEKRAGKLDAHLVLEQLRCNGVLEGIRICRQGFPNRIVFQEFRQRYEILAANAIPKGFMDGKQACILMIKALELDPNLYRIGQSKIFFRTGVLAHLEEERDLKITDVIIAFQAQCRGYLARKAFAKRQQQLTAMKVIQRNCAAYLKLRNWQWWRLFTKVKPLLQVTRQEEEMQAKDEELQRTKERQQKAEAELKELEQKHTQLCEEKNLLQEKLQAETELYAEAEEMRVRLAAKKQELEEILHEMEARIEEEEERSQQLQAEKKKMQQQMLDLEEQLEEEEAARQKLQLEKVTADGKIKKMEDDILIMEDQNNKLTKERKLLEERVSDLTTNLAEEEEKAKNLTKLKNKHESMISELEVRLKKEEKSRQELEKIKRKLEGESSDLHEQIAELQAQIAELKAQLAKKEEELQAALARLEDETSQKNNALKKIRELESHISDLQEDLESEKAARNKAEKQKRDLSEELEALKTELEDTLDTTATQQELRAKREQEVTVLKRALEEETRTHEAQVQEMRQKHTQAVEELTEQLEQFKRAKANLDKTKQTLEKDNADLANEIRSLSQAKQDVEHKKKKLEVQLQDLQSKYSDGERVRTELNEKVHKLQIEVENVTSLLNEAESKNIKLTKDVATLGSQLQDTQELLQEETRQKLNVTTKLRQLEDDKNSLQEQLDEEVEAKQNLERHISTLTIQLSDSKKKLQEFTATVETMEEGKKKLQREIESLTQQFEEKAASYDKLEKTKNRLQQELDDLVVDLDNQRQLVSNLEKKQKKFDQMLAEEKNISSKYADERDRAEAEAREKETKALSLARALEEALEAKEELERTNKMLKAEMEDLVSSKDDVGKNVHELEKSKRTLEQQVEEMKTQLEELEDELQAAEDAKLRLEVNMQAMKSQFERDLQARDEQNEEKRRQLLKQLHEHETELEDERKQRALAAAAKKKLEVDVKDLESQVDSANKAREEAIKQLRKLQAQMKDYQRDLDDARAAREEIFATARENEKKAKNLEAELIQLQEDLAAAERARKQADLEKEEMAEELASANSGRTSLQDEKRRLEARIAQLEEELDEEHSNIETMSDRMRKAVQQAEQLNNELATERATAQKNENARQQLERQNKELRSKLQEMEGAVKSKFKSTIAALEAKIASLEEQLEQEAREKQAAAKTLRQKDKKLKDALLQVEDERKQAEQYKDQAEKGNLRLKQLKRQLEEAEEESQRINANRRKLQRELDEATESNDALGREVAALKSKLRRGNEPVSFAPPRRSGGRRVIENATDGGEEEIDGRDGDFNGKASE
recombinant Dictyostelium miozin (Dictyostelium), sequence (P08799 whole entry): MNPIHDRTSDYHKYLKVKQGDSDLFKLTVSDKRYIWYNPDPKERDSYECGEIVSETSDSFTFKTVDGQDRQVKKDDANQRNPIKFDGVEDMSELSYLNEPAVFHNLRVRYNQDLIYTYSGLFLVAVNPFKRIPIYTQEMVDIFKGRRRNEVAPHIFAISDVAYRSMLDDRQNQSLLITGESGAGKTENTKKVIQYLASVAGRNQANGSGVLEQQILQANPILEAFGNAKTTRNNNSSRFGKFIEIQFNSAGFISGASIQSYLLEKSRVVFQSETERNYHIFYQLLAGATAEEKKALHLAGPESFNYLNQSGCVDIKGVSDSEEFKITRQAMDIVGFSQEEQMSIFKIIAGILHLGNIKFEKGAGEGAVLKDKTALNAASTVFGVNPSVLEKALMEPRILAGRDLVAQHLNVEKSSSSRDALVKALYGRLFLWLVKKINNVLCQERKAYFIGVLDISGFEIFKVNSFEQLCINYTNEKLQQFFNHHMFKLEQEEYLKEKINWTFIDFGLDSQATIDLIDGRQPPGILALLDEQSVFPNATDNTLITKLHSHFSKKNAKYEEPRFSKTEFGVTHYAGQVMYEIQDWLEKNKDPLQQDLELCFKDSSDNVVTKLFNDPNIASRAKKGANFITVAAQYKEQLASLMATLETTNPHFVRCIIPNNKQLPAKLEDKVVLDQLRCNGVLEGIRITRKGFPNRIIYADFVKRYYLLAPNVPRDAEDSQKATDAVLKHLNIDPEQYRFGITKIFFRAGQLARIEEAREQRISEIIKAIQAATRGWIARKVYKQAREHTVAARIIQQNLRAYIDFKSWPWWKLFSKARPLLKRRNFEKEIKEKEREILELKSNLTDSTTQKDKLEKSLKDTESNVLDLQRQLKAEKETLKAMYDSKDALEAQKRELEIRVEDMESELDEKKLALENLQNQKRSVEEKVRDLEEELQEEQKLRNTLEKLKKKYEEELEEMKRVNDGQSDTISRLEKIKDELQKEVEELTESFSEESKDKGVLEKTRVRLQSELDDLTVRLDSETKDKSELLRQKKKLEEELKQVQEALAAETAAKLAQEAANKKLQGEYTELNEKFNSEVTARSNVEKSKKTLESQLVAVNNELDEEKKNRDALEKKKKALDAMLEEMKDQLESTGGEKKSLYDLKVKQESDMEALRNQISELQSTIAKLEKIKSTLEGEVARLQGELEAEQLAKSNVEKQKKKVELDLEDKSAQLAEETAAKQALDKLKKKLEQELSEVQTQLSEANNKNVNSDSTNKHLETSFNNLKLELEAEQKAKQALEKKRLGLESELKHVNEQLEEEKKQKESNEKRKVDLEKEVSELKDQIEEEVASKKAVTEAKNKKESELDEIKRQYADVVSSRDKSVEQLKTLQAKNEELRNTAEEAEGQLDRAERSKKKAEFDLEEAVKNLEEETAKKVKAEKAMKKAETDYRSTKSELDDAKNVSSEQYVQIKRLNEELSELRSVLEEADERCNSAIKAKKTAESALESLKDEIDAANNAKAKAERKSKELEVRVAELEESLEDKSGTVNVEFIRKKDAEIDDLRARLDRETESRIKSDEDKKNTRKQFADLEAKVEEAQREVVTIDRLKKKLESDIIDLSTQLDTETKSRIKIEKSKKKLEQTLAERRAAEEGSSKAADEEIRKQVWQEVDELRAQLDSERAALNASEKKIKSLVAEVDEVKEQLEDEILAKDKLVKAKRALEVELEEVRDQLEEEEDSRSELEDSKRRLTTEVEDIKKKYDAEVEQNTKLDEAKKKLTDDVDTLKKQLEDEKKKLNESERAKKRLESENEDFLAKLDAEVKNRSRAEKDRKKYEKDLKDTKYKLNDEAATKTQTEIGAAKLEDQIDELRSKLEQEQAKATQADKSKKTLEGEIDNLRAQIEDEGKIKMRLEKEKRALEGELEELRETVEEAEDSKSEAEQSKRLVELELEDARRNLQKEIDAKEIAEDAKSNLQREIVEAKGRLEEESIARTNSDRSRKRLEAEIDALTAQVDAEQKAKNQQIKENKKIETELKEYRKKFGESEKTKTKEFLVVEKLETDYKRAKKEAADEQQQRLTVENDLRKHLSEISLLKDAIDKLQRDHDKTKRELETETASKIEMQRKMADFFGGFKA

Structure (SMILES)	IC50 [1]	% inhibition. complete cardiac [1]	inhibition at 5 µM [1]	inhibition at 50 µM [1]	% inhibition at 5 μM (or 10 μM if racemate) Smooth [2]	% inhibition at 50 μM (or 100 μM if racemate) Smooth [2]	% inhibition. complete Smooth [2]	IC50 [3]	% inhibition. complete Dicty [3]	inhibition at 5 µM [3]	inhibition at 50 µM [3]	IC50 [4]	% inhibition. complete NM2C [4]	inhibition at 5 µM [4]	inhibition at 50 µM [4]	% inhibition at 5 μM (or 10 μM if racemate) Skeletal [5]	% inhibition at 50 μM (or 100 μM if racemate) Skeletal [5]	IC50 [5]	% inhibition. complete Skeletal [5]	IC50 [6]	further results
Cc1cc2c(s1)N=C1N(c3ccc(CO)cc3)CCC1(O)C2=O (centres unmarked) [Compound 227, 9-Hydroxy-12-[4-(hydroxymethyl)phenyl]-5-methyl-4-thia-2,12-diazatricyclo[7.3.0.0^3,7]dodeca-1,3(7),5-trien-8-one]	0.76 µM	90%	77%	89%	54%	92%	99%	5.1 µM	100%	47%	96%	2.8 µM	84%	52%	80%	82%	96%	0.83 µM	97%	4 µM	Inhibition (%) NM2C [4]: 84%
Cc1ccc(N2CC[C@@]3(O)C(=O)c4ccsc4N=C23)cc1 [Compound 233, (9S)-9-Hydroxy-12-(4-methylphenyl)-4-thia-2,12-diazatricyclo[7.3.0.0^3,7]dodeca-1,3(7),5-trien-8-one]	0.82 µM	88%	74%	87%	29%	70%	83%	17 µM	100%	21%	76%	2.1 µM	72%	48%	69%	92%	98%	0.32 µM	98%	8.8 µM	Inhibition (%) NM2C [4]: 72%
Cc1cc2c(s1)N=C1N(c3cccs3)CCC1(O)C2=O (centres unmarked) [Compound 229, 9-Hydroxy-5-methyl-12-(thiophen-2-yl)-4-thia-2,12-diazatricyclo[7.3.0.0^3,7]dodeca-1,3(7),5-trien-8-one]	1.4 µM	93%	54%	87%	54%	87%	93%	1.4 µM	97%	74%	95%	1.1 µM	100%	78%	98%	87%	96%	0.61 µM	97%	3.4 µM	Inhibition (%) smooth [2]: 93%
N#CCc1ccc(N2CC[C@@]3(O)C(=O)c4ccsc4N=C23)cc1 [Compound 215, (9S)-2-(4-{9-Hydroxy-8-oxo-4-thia-2,12-diazatricyclo[7.3.0.0^3,7]dodeca-1,3(7),5-trien-12-yl}phenyl)acetonitrile]	5.6 µM	94%	42%	84%	31%	45%	47%	12.1 µM	78%	23%	63%	19 µM	77%	16%	56%	80%	96%	1.1 µM	98%	2.3 µM	Inhibition (%) smooth [2]: 47%
CC(=O)c1ccc(N2CCC3(O)C(=O)c4cc(C)sc4N=C23)cc1 (centres unmarked) [Compound 225, 12-(4-Acetylphenyl)-9-hydroxy-5-methyl-4-thia-2,12-diazatricyclo[7.3.0.0^3,7]dodeca-1,3(7),5-trien-8-one]	2.4 µM	100%	68%	96%	68%	96%	100%	4.1 µM	100%	64%	97%	2.8 µM	78%	47%	74%	93%	95%	0.17 µM	96%	2.2 µM	Inhibition (%) Dicty ([3]; maximum inhibition, compounds in IC50 range 1-11 μM): 100%
COc1ccc(N2CC[C@@]3(O)C(=O)c4ccsc4N=C23)cn1 [Compound 219, (9S)-9-Hydroxy-12-(6-methoxypyridin-3-yl)-4-thia-2,12-diazatricyclo[7.3.0.0^3,7]dodeca-1,3(7),5-trien-8-one]	4.1 µM	84%	44%	78%	15%	32%	36%	43 µM	100%	6%	56%	8.1 µM	21%	8%	18%	69%	91%	1.8 µM	94%	6.9 µM	Inhibition (%) cardiac [1]: 84%; Inhibition (%) skeletal ([5]; maximum inhibition, compounds in IC50 range 1-2 μM): 94%
O=C1c2ccsc2N=C2NCC[C@@]12O [Compound 207, (9S)-9-Hydroxy-4-thia-2,12-diazatricyclo[7.3.0.0^3,7]dodeca-1,3(7),5-trien-8-one]	3.7 µM	8%	4%	7%	7%	6%	7%	> 100 µM	–	0%	5%	–	–	–	–	7%	14%	5.8 µM	15%	1 µM	Inhibition (%) cardiac [1]: 8%
